# Source: US12577217B2, “15-PGDH inhibitor” (KYORIN Pharmaceutical Co., Ltd., priority 2019, dated 2026)
# Molecular target: T1, recombinant human 15-PGDH (Homo sapiens, UniProt P15428)
# T1 construct: purchased R&D Systems
# T1 sequence (P15428 1-266): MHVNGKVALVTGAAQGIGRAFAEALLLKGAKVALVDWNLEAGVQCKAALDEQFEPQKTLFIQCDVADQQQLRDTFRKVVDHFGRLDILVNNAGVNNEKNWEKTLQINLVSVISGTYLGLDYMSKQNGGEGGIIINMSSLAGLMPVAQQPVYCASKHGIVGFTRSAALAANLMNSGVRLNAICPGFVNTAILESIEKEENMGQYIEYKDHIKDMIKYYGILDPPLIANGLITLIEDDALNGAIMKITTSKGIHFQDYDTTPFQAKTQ
# Assay: 15-PGDH enzyme inhibition test
# Assay type: biochemical
# Conditions: 4 nM recombinant human 15-PGDH, 30 μM PGE2, 1 mM NAD+, 60 minutes after starting the reaction; read-out: IC50 Value
# Protocol: 15-PGDH Enzyme Inhibition Test
# A test compound and 4 nM recombinant human 15-PGDH (R&D Systems) were added, in 50 mM Tris-HCl (pH 8.0) containing 0.01% TWEEN 20 (Sigma) and 0.01% bovine gamma globulin (Sigma), to a 384-well Flat Bottom Black plate (Corning, 3820), and the resultant was allowed to stand still at room temperature for 12 minutes, and 30 μM PGE2 (Cayman Chemical) and 1 mM NAD+ (Sigma) were added thereto to start the reaction. 60 minutes after starting the reaction, measurement was performed using Synergy 2 (BioTeck) at an excitation wavelength of 340 nm and a fluorescence wavelength of 440 nm. Assuming that a fluorescence signal obtained with an assay buffer added instead of the test compound and NAD+ was 100% and that a signal obtained with NAD+ added was 0%, a concentration corresponding to 50% inhibition plotted on a concentration-reaction curve of the test compound was defined as an IC50 value. Incidentally, in the following tables, an IC50 value smaller than 10 nM was shown as +++, an IC50 value equal to or larger than 10 nM and smaller than 100 nM was shown as ++, and an IC50 value equal to or larger than 100 nM was shown as +.
row,IC50,SMILES
1,< 10 nM,"CC1c2cc(N3CCOc4cc(C(=O)N5CCCCC5)cnc43)ccc2C(=O)N1C (single isomer, unassigned) [16-1 Isomer A]"
2,< 10 nM,"CC1c2cc(N3CCOc4cc(C(=O)N5CCCCC5)cnc43)ccc2C(=O)N1C (single isomer, unassigned) [16-1 Isomer B, 2,3-Dimethyl-5-(7-(piperidine-1-carbonyl)-2,3-dihydro-4H-pyrido[3,2-b] [1,4]oxazin-4-yl)isoindolin-1-one]"
3,< 10 nM,"Cn1nc2cc(N3CCOc4cc(C(=O)N5CCCC6CC65)cnc43)ccn2c1=O (single isomer, unassigned) [23-1 Isomer A, 7-(7-(2-Azabicyclo[4,1,0]heptane-2-carbonyl)-2,3-dihydro-4H-pyrido[3,2-b][1,4]oxazin-4-yl)-2-methyl-[1,2,4]triazolo[4,3-a]pyridin-3(2H)-one]"
4,< 10 nM,"Cn1nc2cc(N3CCOc4cc(C(=O)N5CCCC6CC65)cnc43)ccn2c1=O (single isomer, unassigned) [23-1 Isomer B, 7-(7-(2-Azabicyclo[4,1,0]heptane-2-carbonyl)-2,3-dihydro-4H-pyrido[3,2-b][1,4]oxazin-4-yl)-2-methyl-[1,2,4]triazolo[4,3-a]pyridin-3(2H)-one]"
5,< 10 nM,"Cn1nc2cc(N3CCOc4cc(C(=O)N5CCCC(C)(F)C5)cnc43)ccn2c1=O (single isomer, unassigned) [23-2 Isomer A]"
6,< 10 nM,"Cn1nc2cc(N3CCOc4cc(C(=O)N5CCCC(C)(F)C5)cnc43)ccn2c1=O (single isomer, unassigned) [23-2 Isomer B]"
7,< 10 nM,COC(=O)c1ccc(N2CCOc3cc(C(=O)N4CCCCC4)ccc32)cc1 [Example 1-7]
8,< 10 nM,N#Cc1ccc(N2CCOc3cc(C(=O)N4CCC(F)(F)CC4)ccc32)cc1 [Example 1-17]
9,< 10 nM,O=C(c1ccc2c(c1)OCCN2c1ccccc1)N1CCCCC1 [Example 1-18]
10,< 10 nM,Cn1oc2cc(N3CCOc4cc(C(=O)N5CCCCC5)cnc43)ccc2c1=O [Example 1-19]
11,< 10 nM,COc1noc2cc(N3CCOc4cc(C(=O)N5CCCCC5)cnc43)ccc12 [Example 1-20]
12,< 10 nM,Cn1nc2cc(N3CCOc4cc(C(=O)N5CCCCC5)cnc43)ccn2c1=O [Example 1-21]
13,< 10 nM,COCn1nc2cc(N3CCOc4cc(C(=O)N5CCCCC5)cnc43)ccn2c1=O [Example 1-22]
14,< 10 nM,CN1Cc2cc(N3CCOc4cc(C(=O)N5CCCCC5)cnc43)ccc2C1=O [Example 1-23]
15,< 10 nM,COC(=O)c1cc2sc(N3CCOc4cc(C(=O)N5CCCCC5)cnc43)cc2s1 [Example 1-24]
16,< 10 nM,Cn1nc2cc(N3CCOc4cc(C(=O)N5CCCCC5)ccc43)ccn2c1=O [Example 1-25]
17,10 to 100 nM,Cc1cn2ccc(N3CCOc4cc(C(=O)N5CCCCC5)cnc43)cc2n1 [Example 1-26]
18,< 10 nM,CC(C)n1nc2cc(N3CCOc4cc(C(=O)N5CCCCC5)cnc43)ccn2c1=O [Example 1-27]
19,< 10 nM,COCCn1nc2cc(N3CCOc4cc(C(=O)N5CCCCC5)cnc43)ccn2c1=O [Example 1-28]
20,< 10 nM,Cn1nc2c(Cl)c(N3CCOc4cc(C(=O)N5CCCCC5)cnc43)ccn2c1=O [Example 1-29]
21,< 10 nM,O=C(c1cnc2c(c1)OCCN2c1ccn2c(=O)[nH]nc2c1)N1CCCCC1 [Example 1-30]
22,< 10 nM,O=C(c1cnc2c(c1)OCCN2c1ccn2c(=O)n(Cc3ccccc3)nc2c1)N1CCCCC1 [Example 1-31]
23,< 10 nM,O=C(c1cnc2c(c1)OCCN2c1ccn2c(=O)n(Cc3cccnc3)nc2c1)N1CCCCC1 [Example 1-32]
24,< 10 nM,CN(C)CCn1nc2cc(N3CCOc4cc(C(=O)N5CCCCC5)cnc43)ccn2c1=O [Example 1-33]
25,< 10 nM,O=C(c1cnc2c(c1)OCCN2c1ccn2c(=O)n(Cc3ccncc3)nc2c1)N1CCCCC1 [Example 1-34]
26,< 10 nM,O=C(c1cnc2c(c1)OCCN2c1ccn2c(=O)n(-c3ccccn3)nc2c1)N1CCCCC1 [Example 1-35]

row,IC50,SMILES
1,< 10 nM,O=C(c1cnc2c(c1)OCCN2c1ccn2c(=O)n(CC3COC3)nc2c1)N1CCCCC1 [Example 1-36]
2,< 10 nM,COc1ccc(CN2Cc3cc(N4CCOc5cc(C(=O)N6CCCCC6)cnc54)ccc3C2=O)cc1 [Example 1-37]
3,< 10 nM,Cn1cnc2cc(N3CCOc4cc(C(=O)N5CCCCC5)cnc43)cnc2c1=O [Example 1-38]
4,10 to 100 nM,Cn1cnc2cc(N3CCOc4cc(C(=O)N5CCCCC5)cnc43)ncc2c1=O [Example 1-39]
5,< 10 nM,COC(=O)Cn1nc2cc(N3CCOc4cc(C(=O)N5CCCCC5)cnc43)ccn2c1=O [Example 1-40]
6,< 10 nM,COCn1nc2cc(N3CCOc4cc(C(=O)N5CCC[C@H](C)C5)cnc43)ccn2c1=O [Example 1-41]
7,< 10 nM,C[C@H]1CCCN(C(=O)c2cnc3c(c2)OCCN3c2ccn3c(=O)[nH]nc3c2)C1 [Example 1-42]
8,< 10 nM,COCn1nc2cc(N3CCOc4cc(C(=O)N5CCC(F)(F)CC5)cnc43)ccn2c1=O [Example 1-43]
9,< 10 nM,CCOCn1nc2cc(N3CCOc4cc(C(=O)N5CCC(F)(F)CC5)cnc43)ccn2c1=O [Example 1-44]
10,< 10 nM,CN1Cc2cc(N3CCOc4cc(C(=O)N5CCC(F)(F)CC5)cnc43)cnc2C1=O [Example 1-45]
11,10 to 100 nM,CN1Cc2cc(N3CCOc4cc(C(=O)N5CCC(F)(F)CC5)cnc43)ncc2C1=O [Example 1-46]
12,< 10 nM,COCCn1nc2cc(N3CCOc4cc(C(=O)N5CCC(F)(F)CC5)cnc43)ccn2c1=O [Example 1-47]
13,< 10 nM,CCOCCn1nc2cc(N3CCOc4cc(C(=O)N5CCC(F)(F)CC5)cnc43)ccn2c1=O [Example 1-48]
14,< 10 nM,COCCN1Cc2cc(N3CCOc4cc(C(=O)N5CCC(F)(F)CC5)cnc43)ccc2C1=O [Example 1-49]
15,< 10 nM,CCOCCN1Cc2cc(N3CCOc4cc(C(=O)N5CCC(F)(F)CC5)cnc43)ccc2C1=O [Example 1-50]
16,10 to 100 nM,CCOCCN1Cc2cc(N3CCOc4cc(C(=O)N5CCC(F)(F)CC5)cnc43)ncc2C1=O [Example 1-51]
17,< 10 nM,COCn1nc2cc(N3CCCOc4cc(C(=O)N5CCCCC5)cnc43)ccn2c1=O [Example 1-52]
18,< 10 nM,COCn1nc2cc(N3CCCc4cc(C(=O)N5CCCCC5)cnc43)ccn2c1=O [Example 1-53]
19,< 10 nM,CCn1nc2cc(N3CCCc4cc(C(=O)N5CCCCC5)cnc43)ccn2c1=O [Example 1-54]
20,< 10 nM,COCCn1nc2cc(N3CCCc4cc(C(=O)N5CCCCC5)cnc43)ccn2c1=O [Example 1-55]
21,10 to 100 nM,CN1Cc2cc(N3CCCc4cc(C(=O)N5CCCCC5)cnc43)ncc2C1=O [Example 1-56]
22,< 10 nM,CCOCn1nc2cc(N3CCCc4cc(C(=O)N5CCCCC5)cnc43)ccn2c1=O [Example 1-57]
23,< 10 nM,O=C(c1cnc2c(c1)CCCN2c1ccn2c(=O)n(CC3COC3)nc2c1)N1CCCCC1 [Example 1-58]
24,< 10 nM,CNC(=O)c1ccc(N2CCCc3cc(C(=O)N4CCCCC4)cnc32)cc1F [Example 1-59]
25,< 10 nM,COCCNC(=O)c1ccc(N2CCCc3cc(C(=O)N4CCCCC4)cnc32)cc1F [Example 1-60]
26,< 10 nM,O=C(NCC1COC1)c1ccc(N2CCCc3cc(C(=O)N4CCCCC4)cnc32)cc1F [Example 1-61]
